Source: patent US8710068B2, “Method of treating cancer using a survivin inhibitor” (The Trustees Of The University Of Pennsylvania, priority 2009, dated 2014)

Columns and labels:
Survivin protein = molecular target: T1, Survivin protein (Homo sapiens, UniProt O15392); test: Isothermal titration calorimetry (ITC) binding to native Survivin
T1 construct: made in house; host or cells: bacteria
Experimental: (§1) FIG. 5 illustrates an analysis of S12-Survivin binding with isothermal titration calorimetry (ITC). Single-site point mutagenesis was performed to create the Survivin mutants F86A and V89Y. The native and the mutant proteins were produced and purified from bacteria.
FIG. 16 illustrates the isothermal titration calorimetry profile of the binding of SBDO3 to the Survivin homodimer.
(§2) In order to examine the specificity of the binding, we generated point mutations on the Survivin protein at the site presumably targeted by S12. The two mutations were substitutions of phenylalanine 86 with alanine (F86A) and valine 89 with tyrosine (V89Y). These two altered sites are also adjacent to the interface involved in dimerization of the Survivin protein. Based on structural analyses, we predict that alterations of either of these two amino acid residues may abolish the binding of S12 without affecting the overall structure of the Survivin protein.
We tested the binding of the Survivin target molecules to Survivin by isothermal titration calorimetry.

Sur-V89Y = molecular target: T2, Sur-V89Y (Homo sapiens, UniProt O15392, V89Y); test: ITC binding to Survivin mutant V89Y; settings: in words
T2 construct: made in house; host or cells: bacteria
Experimental: as §1, §2

HCT116(p53−/−) cells = test: MTT viability assay, HCT116(p53−/−); assay type: cell-based; settings: 48 hours
Experimental: FIG. 4 illustrates the effects of S12 on proliferation of p53-positive and p53-negative cancer cells. (A) HCT116(p53+/+) or HCT116(p53−/−) cells were treated with DMSO or S12 at the indicated concentrations for 48 hours. The percentage of viable cells was evaluated by MTT assay.
Thus, inhibition of cell proliferation by S12 is independent of p53 status.

HeLa cells [1] = test: Cell cycle analysis of DNA content by PI staining and FACS, HeLa; assay type: cell-based, human; settings: HeLa, FACS DNA content
Experimental: FIG. 7 illustrates the effect of S2 or S12 on cell cycle progression. HeLa cells were treated with S2, S12, S10, S1 (control compound), or DMSO (control), propidium iodide (PI) staining and FACS analysis were performed to quantify the DNA content of cells.
FIG. 9 illustrates the effect of S12 on mitosis. (A) HeLa cells were treated with S12, S2 or DMSO for 15 hours. The cells were then fixed and subjected to immunostaining using antibodies specific for Aurora B (green) and Survivin (red). DNA was stained with DAPI. Chromosome misalignment is indicated with the arrowheads. (B) Percentage of S12-treated cells in mitosis, in metaphase, in anaphase/telophase, or with misaligned chromosomes. (C) Percentage of S2-treated cells in mitosis, in metaphase, in anaphase/telophase, or with misaligned chromosomes. (D) HeLa cells were treated with S12 (10 μg/ml) or DMSO (control) for 15 hours. Cells were examined by PI staining of DNA content by FACS analysis.
FIG. 17 illustrates (A) FACS analysis of DNA content of HeLa cells treated with SBDO3. Note the accumulation of cells at the G2/M stage. Cell death was also observed (sub-G1 population); (B) Immuno-fluorescence microscopy analysis of cell treated with SBDO3. Note that the microtubule bundles of the mitotic spindle are disorganized. The chromosomes are not aligned properly and cells cannot go through metaphase.
The candidate Survivin-targeting molecules identified by the virtual screen were examined for the ability to inhibit cell proliferation and mitosis. HeLa cells were treated with the compounds at various concentrations for 15 hours followed by examination of the DNA content by FACS analysis. […] The effects of S2 inflicted on cell proliferation and viability are consistent with the anticipated outcome caused by the ablation of Survivin functions. We have extended these studies to test a number of molecules that are structurally similar to S2, including S10, S11, S12 and S13. […] S12 affected cell proliferation and viability, consistent with the anticipated outcome caused by ablation of Survivin functions.
We analyzed distribution of cells in the different stages of the cell cycle by FACS. […] In addition, the inhibitory effect of SBDO3 is dose dependent (FIG. 17A).
We also conducted immuno-fluorescence studies on SBDO3 treated HeLa cells.

AsPC1 tumor xenograft = test: AsPC1 mouse xenograft tumor growth; assay type: in vivo, athymic mice
Experimental: FIG. 13 illustrates S12 inhibition of tumor growth in vivo. (A) AsPC1 cells were injected subcutaneously into the mid-dorsum of athymic mice. S12 was administered 10 days after the injection at the concentration of 5 mg/kg (blue triangles; middle line on the graph, n=4) or 15 mg/kg (red triangles; lower line on the graph; n=3). The control group was treated with PBS containing DMSO only (black square; upper line on the graph). The results represent the mean tumor volume+/− standard error (P<0.05). (B) In a second set of studies S12 was administered at the concentration of 15 mg/kg or 50 mg/kg (n=3). In both studies the control group was treated with PBS containing DMSO only. The results represented the mean tumor volume+/− standard error.
The effect of S12 on tumor growth was examined using a mouse xenograft model. The human pancreatic cell line AsPC1 was injected subcutaneously into athymic mice and formed palpable tumors within 10 days. S12 was then administered at the concentration of 5 mg/kg or 15 mg/kg three times per week until the end point of the experiment. The size of the tumors was monitored for up to 48 days after the initial grafting.

[2] = Toxicity observation in xenograft mice; assay type: in vivo; settings: 5 to 50 mg/kg, xenograft studies
HeLa cells [3] = test: Trypan blue exclusion cell death, synchronized vs unsynchronized HeLa; assay type: cell-based, human
Experimental: FIG. 12 illustrates S12 induction of caspase activation in HeLa cells. (A) HeLa cells were incubated with DMSO (control), S12, Taxol, nocodazole (Noco), or etoposide (Etop) for 12 hours. The cell lysates were analyzed by Western blot using the anti-PARP antibody (top panel), the anti-α-tubulin antibody (middle panel), or the anti-Survivin antibody (bottom panel). (B) S12 causes cell death in a cell cycle dependent manner. HeLa cells, either unsynchronized or synchronized by thymidine treatment were incubated either with S12 or DMSO. Cell death was quantitated by trypan blue exclusion assay.
We wanted to determine if the Survivin-targeting compounds induce cell death during mitosis but could not affect the phenotype or influence in other stages of the cell cycle. To this end, we blocked HeLa cells in the S phase by thymidine treatment and examined whether the cells were susceptible to cell death induced by S12. […] Thus, the current data support the notion that S12 induced death of cells is a consequence of mitotic arrest rather than general cytotoxicity and indicate a unique cell cycle specific functionality of Survivin in this process.

T1 sequence (O15392 whole entry): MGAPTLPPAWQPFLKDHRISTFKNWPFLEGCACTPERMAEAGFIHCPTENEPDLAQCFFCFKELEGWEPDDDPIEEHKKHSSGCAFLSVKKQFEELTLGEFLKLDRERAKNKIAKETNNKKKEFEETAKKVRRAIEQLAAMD
T2 sequence (O15392 whole entry V89Y): as the sequence (O15392 whole entry) above, with V89Y counted along it

O=C(CC1(O)C(=O)Nc2ccc(Br)cc21)c1ccc2c(c1)OCO2 (stereo not drawn) [S12]
binding to the Survivin protein (Survivin protein; ITC, in words): can bind to the Survivin protein
N (ITC stoichiometry) (Survivin protein; isothermal titration calorimetry, native Survivin): 1.00
Kd (Survivin protein; isothermal titration calorimetry, native Survivin, read-out: K (ITC binding constant) (converted)): 0.224 µM
binding to mutant Sur-V89Y (Sur-V89Y): did not bind
reduction of cell viability (HCT116(p53−/−) cells): equally effective at reducing cell viability
accumulation of cells in the G2/M stage (HeLa cells [1]; 15 hours): accumulation of cells in the G2/M stage
sub-G1 population (cell death) (HeLa cells [1]): increase of cells in the sub-G1 population
tumor volume (AsPC1 tumor xenograft; 5 mg/kg or 15 mg/kg three times per week, up to 48 days): significantly lowered the tumor volume in a dose-dependent manner
tumor regression (AsPC1 tumor xenograft; dose raised to 50 mg/kg): enhancement of tumor regression
toxic effects to the mice [2]: no overtly toxic effects
cell death of S phase-arrested cells (HeLa cells [3]; HeLa blocked in S phase by thymidine): insensitive
cell death of unsynchronized cells (HeLa cells [3]; unsynchronized HeLa): underwent apoptosis
